Structures are written as SMILES.

The target in this experiment is T1, GBA2 (Homo sapiens, UniProt Q9HCG7).
T1 sequence (Q9HCG7 1-927): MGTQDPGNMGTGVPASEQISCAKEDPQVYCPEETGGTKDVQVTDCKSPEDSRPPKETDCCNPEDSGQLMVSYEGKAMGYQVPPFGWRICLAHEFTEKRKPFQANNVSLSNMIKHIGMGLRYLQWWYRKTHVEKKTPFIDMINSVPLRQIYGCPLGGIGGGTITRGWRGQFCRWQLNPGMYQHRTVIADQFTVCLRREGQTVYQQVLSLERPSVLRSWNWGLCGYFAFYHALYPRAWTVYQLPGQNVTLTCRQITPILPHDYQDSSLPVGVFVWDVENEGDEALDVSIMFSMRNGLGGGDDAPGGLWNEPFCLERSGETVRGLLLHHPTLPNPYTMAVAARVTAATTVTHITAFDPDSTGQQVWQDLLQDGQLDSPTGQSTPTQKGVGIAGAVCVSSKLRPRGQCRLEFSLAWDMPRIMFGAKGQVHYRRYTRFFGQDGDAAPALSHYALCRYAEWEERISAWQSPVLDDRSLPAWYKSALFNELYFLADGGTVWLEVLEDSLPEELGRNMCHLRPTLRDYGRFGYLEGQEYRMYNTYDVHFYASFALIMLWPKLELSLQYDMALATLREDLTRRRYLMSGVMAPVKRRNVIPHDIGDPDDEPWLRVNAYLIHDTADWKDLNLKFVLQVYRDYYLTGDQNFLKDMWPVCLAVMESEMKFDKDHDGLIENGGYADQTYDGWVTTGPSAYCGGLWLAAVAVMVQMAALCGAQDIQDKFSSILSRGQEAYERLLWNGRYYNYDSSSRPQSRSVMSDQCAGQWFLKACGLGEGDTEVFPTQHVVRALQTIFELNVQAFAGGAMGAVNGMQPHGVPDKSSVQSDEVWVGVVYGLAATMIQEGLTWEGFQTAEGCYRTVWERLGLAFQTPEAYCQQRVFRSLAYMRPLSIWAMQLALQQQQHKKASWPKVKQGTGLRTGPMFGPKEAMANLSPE
Nature of the experiment: In vitro ABP labelling of HEK293T lysates (ABPP, SDS-PAGE fluorescence scanning). In kind it is biochemical. Also on record: expressed in transfected cells; host or cells: HEK293T GBA1/GBA2 KO (CRISPR/Cas9), GBA2 overexpressed. The note with it: for Concentration at which GBA2 is selectively labelled: 30 min, pH 6.0. The method, then: To this end, lysates of HEK293T cells containing all β-glucosidases (endogenous GBA1 with overexpressed GBA2 and GBA3) were treated with ABPs 3, 4, 5 or 7, followed by protein separation by SDS-PAGE and fluorescence scanning of the wet gel slabs. […] In contrast, the β-D-Araf aziridine ABPs 3 and 4 selectively labelled GBA2 at a concentration of 100 nM, while Cy5 tagged ABP 5 did so at 500 nM. The GBA2 selectivity of β-D-Araf cyclitol aziridines 3, 4 and 5 was confirmed in a mixture of a lysate of overexpressed GBA2 cells spiked with 3 ng rhGBA1 (Fig. 2C and ESI Fig. S3 ^†). In this experiment, the enzyme mixture was first incubated with β-D-Araf aziridine ABPs 3, 4, or 5 for 30 minutes, after which selective GBA1 ABP 10 [32] or 11 [30] was added to label the remaining active rhGBA1 active site. […] The pH and incubation time dependence labelling of GBA2 in HEK293T cells containing all three retaining β-glucosidases by β-D-Araf ABPs was next investigated (Fig. 2D, E and ESI Fig. S4 ^†). All ABPs selectively label GBA2 at a pH range of 4.5–7.5. Using 500 nM of ABP 4, GBA2 labelling occurred within a minute, and maximal labelling was observed after 20–30 minutes. […] Therefore, only a combined inactivation rate constant (kinact) and binding constant (KI) ratio (kinact/KI) could be measured. […] Importantly, no labelling of GBA1 or GBA3 was detected under varying pH and time conditions (ESI Fig. S4-2 ^†). […]
2.6 Visualization of ABP labelling towards β-glucosidases by activity-based protein profiling (ABPP) with SDS-PAGE
β-Glucosidases were labeled with excess of fluorescent ABPs at optimum conditions at 37 °C for 30 min (if not otherwise stated). The total sample volume was 20–40 μL with 0.5–1% DMSO concentration in appropriate pH McIlvaine buffer (150 mM). To label lysates containing all β-glucosidases (GBA1, GBA2 and GBA3), ABP 7 was used at pH 6.0 in McIlvaine buffer. To label lysate only containing GBA2 (GBA1/2 KO and GBA2 OE cell lysate), ABP (3-5, or 7) was incubated at pH 5.8 in McIlvaine buffer was used. To label rhGBA1 (Imiglucerase), ABP (10 or 11) at pH 5.2 in McIlvaine buffer supplemented with 0.1% (v/v) Triton X-100 and 0.2% (w/v) sodium taurocholate were used.
After incubation with the corresponding ABPs, proteins were denatured by boiling the samples with 5× Laemmli buffer (50% (v/v) 1 M Tris-HCl, pH 6.8, 50% (v/v) 100% glycerol, 10% (w/v) DTT, 10% (w/v) SDS, 0.01% (w/v) bromophenol blue, diluted into 1x for use) for 5 min at 98 °C, and separated by electrophoresis on 10% SDS-PAGE gels run at 90 V for 1.0-1.5 h. Wet slab-gels were imaged using the Typhoon FLA 9500 scanner (GE Healthcare, Eindhoven, The Netherlands) at λEX 473 nm and λEM ≥ 510 nm for BODIPY green fluorescence; at λEX 532 nm and λEM ≥ 575 nm for the BODIPY red fluorescence ; at λEX 635 nm and λEM ≥ 665 nm for Cy5 fluorescence. Afterwards, wet slab-gels were stained by Coomassie brilliant blue (CBB) G250 or R250 for total protein staining and scanned with a ChemiDocTM MP Imaging System (Bio-Rad, Veenendaal, The Netherlands).
2.7 Determination of kinetic parameters of ABP 4
The kinetic parameters of ABP 4 for GBA2 was determined by SDS-PAGE analysis in lysates of HEK293T GBA1/2 knock out GBA2 overexpression cells in which the relative intensity of the band on wet gel slabs (compared to labelling control) was used to calculate the inactivation parameters of GBA2. Lysates were made as previous cell lysis description. […]

Where [1] appears, read: HEK293T lysate, endogenous GBA1, overexpressed GBA2 and GBA3.

As for `CC1=CC(C)=[N+]2C1=C(CCCCc1cn(CCCCCCCCN3[C@@H]4[C@H](CO)[C@@H](O)[C@H](O)[C@@H]43)nn1)c1c(C)cc(C)n1[B-]2(F)F` (some centres unmarked) [ABP 3], under setting [1], the “Concentration at which GBA2 is selectively labelled” value was determined as 100 nM.

For `COc1ccc(C2=[N+]3C(=C(CCCCc4cn(CCCCCCCCN5[C@@H]6[C@H](CO)[C@@H](O)[C@H](O)[C@@H]65)nn4)c4ccc(-c5ccc(OC)cc5)n4[B-]3(F)F)C=C2)cc1` (some centres unmarked) [ABP 4], the “Time to maximal GBA2 labelling” value (500 nM ABP, HEK293T lysate containing all three β-glucosidases) was in the range of 20 to 30 min. Under setting [1], the “Concentration at which GBA2 is selectively labelled” value stood at 100 nM.

Regarding `CN1/C(=C/C=C/C=C/C2=[N+](CCCCCC(=O)NCc3cn(CCCCCCCCN4[C@@H]5[C@H](CO)[C@@H](O)[C@H](O)[C@@H]54)nn3)c3ccccc3C2(C)C)C(C)(C)c2ccccc21` (some centres unmarked) [ABP 5], the “Concentration at which GBA2 is selectively labelled” value under setting [1] stood at 500 nM.

As to `CN1/C(=C/C=C/C=C/C2=[N+](CCCCCC(=O)NCc3cn(CCCCCCCCN4[C@@H]5[C@H](CO)[C@@H](O)[C@H](O)[C@@H](O)[C@@H]54)nn3)c3ccccc3C2(C)C)C(C)(C)c2ccccc21` (some centres unmarked) [ABP 7], the “β-Glucosidases labelled in lysate” value under setting [1] is reported as “labelled all three β-glucosidases”.

The values above are taken from article PMC11375437, “Selective labelling of GBA2 in cells with fluorescent β-D-arabinofuranosyl cyclitol aziridines” (Chemical Science, 2024).
